According to patent publication US10702484B2, “Use of 3-(3-hydroxy-4-methoxy-phenyl)-1-(2,4,6-trihydroxy-phenyl) propan-1-one” (SYMRISE AG, priority 2016, dated 2020):

What was measured:
[1] = J. Chem. Senses 1979, 4(1), 35-47; cited from earlier work
group of experts [2] = assay: Modification of the sweet profile of a sucrose solution (sensory panel); type: in vivo; conditions: for Beginning of sweet impression (<2 sec) / Overall sweet impression / Sugar full flavour and taste: n=12
Description: The taste profile of a 7 wt % aqueous sucrose solution was compared with by a group of experts (n=12) in each case with a specimen having an equivalent composition and additionally a 1.5% sucrose (B), 5 ppm, 7 ppm or 20 ppm hesperetin dihydrochalcone (I).

[3] = in soft drinks; purity>90%; cited from earlier work
group of experts [4] = assay: Intensification of the sweet impression of a sugar solution (sensory panel rating); type: in vivo
Description: In order to quantify the intensification of the sweet impression, in each case the sweetness of a 5% sucrose solution was compared by a group of experts with a specimen containing 5% sucrose and 1 ppm, 5 ppm, 7 ppm or 10 ppm of the hesperetin dihydrochalcone (I) to be used according to the invention (rating: 1 [not sweet] to 10 [extremely sweet]). For comparison issues, the intensification of the sweet impression containing with a specimen containing 5% sucrose and 10 ppm or 25 ppm deoxy hesperetin dihydrochalcone is also included.
For the assessment, i.e. calculation of the intensification (in %) of the sweet impression in each case the average values of the assessments of the group of experts for the sucrose solution and the specimen for comparison containing sucrose and hesperetin dihydrochalcone (I) or deoxy hesperetin dihydrochalcone were used.

group of experts [5] = assay: Bitter-reduction of a bitter substance solution (sensory panel rating); type: in vivo; conditions: for Bitter impression of bitter substance + compound (I) (average values): n=18
Description: In order to quantify the decrease (i.e. the masking or reduction) in bitter impression in a specimen, the bitterness of a solution containing different bitter tasting substances in specific concentrations was compared by a group of experts (n=18) in each case with a specimen having an equivalent composition and additionally a specific concentration of hesperetin dihydrochalcone (I) (rating: 1 [not bitter] to 100 [extremely bitter]).
For the assessment, i.e. the calculation of the reduction (in %) of the bitter impression in each case the average values of the assessments of the group of experts for the respective bitter substance solution and the bitter substance solution also containing 10 ppm hesperetin dihydrochalcone (I) were used (*sign.lev. α=0.05). For comparison issues, the calculation of the reduction (in %) of the bitter impression for the respective bitter substance solution containing deoxy hesperetin dihydrochalcone is also included.

group of experts [6] = assay: Improvement of the taste profile of chicken flavour (sensory panel); type: in vivo; conditions: addition of 2 ppm; n=3
Description: A group of experts (n=3) evaluated the influence on the taste profile of a chicken flavour with the typical descriptors of chicken meat note, boiled note, bony, light sour by the addition of 2 ppm hesperetin dihydrochalcone (I).

group of experts [7] = assay: Modulation of the cooling-profile of WS-3 (sensory panel); type: in vivo; conditions: 1 ppm added to aqueous solution of 5 wt % sucrose and 4 ppm WS-3; n=5
Description: A group of experts (n=5) evaluated the influence on the cooling profile of an aqueous solution containing 5 wt % sucrose and 4 ppm WS-3.

group of 30 experts = assay: Intrinsic sweetness, two-alternative forced choice (2AFC) test; type: in vivo; conditions: 10 ppm in water, α=0.05
Description: A group of 30 experts were asked in a two-alternative forced choice (2AFC) test to select the solution with the stronger sweet impression from a couple of solutions. The evaluated solutions-couples are selected from a group of solutions consisting of a solution of hesperetin dihydrochalcone (I) in water (20 ppm, 15 ppm, 12.5 ppm, and 10 ppm) and a 1.5 wt % aqueous sucrose solution.

[8] = in the presence of acids; cited from earlier work
[9] = 7% Sucrose-solution + 1.5% Sucrose (=8.5% sucrose solution)
[10] = 5% sucrose + 10 ppm test substance
[11] = 5% sucrose + 10 ppm test substance, rating 1 to 10
[12] = 7 wt % aqueous sucrose solution

Molecule: COc1ccc(CCC(=O)c2ccccc2O)cc1O [dihydrochalcone (2)]
- Taste (sweetening power) as presented in the publication [1]: intensively sweet tasting

Molecule: COc1ccc(CCC(=O)c2c(O)cccc2O)cc1O [dihydrochalcone (3)]
- Taste (sweetening power) as presented in the publication [1]: tasteless

Molecule: OC[C@H]1O[C@@](CO)(O[C@H]2O[C@H](CO)[C@@H](O)[C@H](O)[C@H]2O)[C@@H](O)[C@@H]1O [Sucrose, sucrose, reference compound]
- Beginning of sweet impression (<2 sec) (group of experts [2]; [9]): 5.74
- Overall sweet impression (group of experts [2]; [9]): 6.36
- Sugar full flavour and taste (group of experts [2]; [9]): 5.17

Molecule: C=C1C[C@@]23CC[C@H]4[C@@](C)(CCC[C@@]4(C)C(=O)O[C@@H]4O[C@H](CO)[C@@H](O)[C@H](O)[C@H]4O)[C@@H]2CC[C@]1(O[C@@H]1O[C@H](CO)[C@@H](O)[C@H](O[C@@H]2O[C@H](CO)[C@@H](O)[C@H](O)[C@H]2O)[C@H]1O[C@@H]1O[C@H](CO)[C@@H](O)[C@H](O)[C@H]1O)C3 [rebaudioside A]
- Concentration necessary to achieve a sweetness corresponding to a concentration of sucrose of 10% by weight [3]: 400-600 ppm

Molecule: deoxy hesperetin dihydrochalcone [reference compound]
- Intensification of the sweet impression (group of experts [4]; [10]): 21.2%
- Sweet impression (1-10) Specimen (Sucrose + Test substance) (group of experts [4]; [11]): 6.4
- Intensification of the sweet impression (group of experts [4]; 5% sucrose + 25 ppm test substance): 42%
- Sweet impression (1-10) Specimen (Sucrose + Test substance) (group of experts [4]; 5% sucrose + 25 ppm test substance, rating 1 to 10): 6.9
- Reduction in bitter impression by adding 50 ppm of deoxy hesperetin dihydrochalcone (group of experts [5]; 5 ppm Chininhydrochloride): +10.7%
- Reduction of the bitter impression of Chininhydrochloride (in words) (group of experts [5]; 50 ppm): no reduction
- Amount necessary, as factor of the amount of hesperetin dihydrochalcone (I), to obtain a similar reduction of the bitter impression (group of experts [5]; 50 ppm versus 10 ppm): 5
- Reduction in bitter impression by adding 50 ppm of deoxy hesperetin dihydrochalcone (group of experts [5]; 100 ppm Naringin): −6.6%
- Reduction in bitter impression by adding 50 ppm of deoxy hesperetin dihydrochalcone (group of experts [5]; 250 ppm Salicin): −15.2%
- Reduction in bitter impression by adding 50 ppm of deoxy hesperetin dihydrochalcone (group of experts [5]; 500 ppm Coffeine): −11.3%

Molecule: COc1ccc(CCC(=O)c2c(O)cc(O)cc2O)cc1O [hesperetin dihydrochalcone (I), 3-(3-Hydroxy-4-methoxy-phenyl)-1-(2,4,6-trihydroxyphenyl)propan-1-one]
- Intensification of the sweet impression (group of experts [4]; 5% sucrose + 1 ppm test substance): 14.1%
- Sweet impression (1-10) Specimen (Sucrose + Test substance) (group of experts [4]; 5% sucrose + 1 ppm test substance, rating 1 [not sweet] to 10 [extremely sweet]): 6.1
- Intensification of the sweet impression (group of experts [4]; 5% sucrose + 5 ppm test substance): 32.6%
- Sweet impression (1-10) Specimen (Sucrose + Test substance) (group of experts [4]; 5% sucrose + 5 ppm test substance, rating 1 to 10): 7.1
- Intensification of the sweet impression (group of experts [4]; 5% sucrose + 7 ppm test substance): 35.7%
- Sweet impression (1-10) Specimen (Sucrose + Test substance) (group of experts [4]; 5% sucrose + 7 ppm test substance, rating 1 to 10): 7.3
- Intensification of the sweet impression (group of experts [4]; [10]): 38.6%
- Sweet impression (1-10) Specimen (Sucrose + Test substance) (group of experts [4]; [11]): 7.8
- Intensification of the sweet impression compared to 10 ppm deoxy hesperetin dihydrochalcone (in words) (group of experts [4]; 5 ppm, 5% sucrose): clearly higher
- Intensification of the sweet impression compared to the same amount of deoxy hesperetin dihydrochalcone (in words) (group of experts [4]; 10 ppm, 5% sucrose): remarkable intensification
- Reduction in bitter impression by adding 10 ppm of compound (I) (group of experts [5]; 5 ppm Chininhydrochloride): −25.0%
- Bitter impression of bitter substance + compound (I) (average values) (group of experts [5]; 5 ppm Chininhydrochloride + 10 ppm compound (I), rating 1 to 100): 29.05
- Reduction of the bitter impression of Chininhydrochloride (in words) (group of experts [5]; 10 ppm): remarkable reduction
- Bitter impression of bitter substance + compound (I) (average values) (group of experts [5]; 100 ppm Naringin + 10 ppm compound (I), rating 1 to 100): 46.54
- Reduction in bitter impression by adding 10 ppm of compound (I) (group of experts [5]; 100 ppm Naringin, * sign.lev. α=0.05): −21.5%*
- Bitter impression of bitter substance + compound (I) (average values) (group of experts [5]; 250 ppm Salicin + 10 ppm compound (I), rating 1 to 100): 51.40
- Reduction in bitter impression by adding 10 ppm of compound (I) (group of experts [5]; 250 ppm Salicin, * sign.lev. α=0.05): −17.6%*
- Reduction in bitter impression by adding 10 ppm of compound (I) (group of experts [5]; 300 ppm Theobromine): −12.4%
- Bitter impression of bitter substance + compound (I) (average values) (group of experts [5]; 300 ppm Theobromine + 10 ppm compound (I), rating 1 to 100): 45.01
- Reduction in bitter impression by adding 10 ppm of compound (I) (group of experts [5]; 500 ppm Coffeine): −13.8%
- Bitter impression of bitter substance + compound (I) (average values) (group of experts [5]; 500 ppm Coffeine + 10 ppm compound (I), rating 1 [not bitter] to 100 [extremely bitter]): 37.46
- Reduction of the bitter impression of Naringin compared to deoxy hesperetin dihydrochalcone (in words) (group of experts [5]; Naringin, 10 ppm versus 50 ppm deoxy hesperetin dihydrochalcone): notable increase in the reduction of the bitter impression
- Influence on the taste profile of chicken flavour (chicken meat note, boiled note, bony, light sour) (group of experts [6]): without a negative influence
- Mouth fullness of chicken flavour (in words) (group of experts [6]): remarkably enhance
- Cooling effect (in words) (group of experts [7]): slightly improvement
- Perception of cooling impression (in words) (group of experts [7]): faster
- Sweet impression compared to the 1.5 wt % aqueous sucrose solution (group of 30 experts): remarkably weaker
- Beginning of sweet impression (<2 sec) (group of experts [2]; 7% Sucrose-solution + 5 ppm): 4.63
- Overall sweet impression (group of experts [2]; 7% Sucrose-solution + 5 ppm): 5.24
- Sugar full flavour and taste (group of experts [2]; 7% Sucrose-solution + 5 ppm): 4.26
- Beginning of sweet impression (<2 sec) (group of experts [2]; 7% Sucrose-solution + 7 ppm): 4.78
- Overall sweet impression (group of experts [2]; 7% Sucrose-solution + 7 ppm): 5.93
- Sugar full flavour and taste (group of experts [2]; 7% Sucrose-solution + 7 ppm): 4.42
- Beginning of sweet impression (<2 sec) (group of experts [2]; 7% Sucrose-solution + 20 ppm): 4.49
- Overall sweet impression (group of experts [2]; 7% Sucrose-solution + 20 ppm): 4.90
- Sugar full flavour and taste (group of experts [2]; 7% Sucrose-solution + 20 ppm): 4.11
- Effect on the overall sweet impression (in words) (group of experts [2]; [12]): increases
- Influence on the beginning of sweet impression (sweet impact) and the perceived sugar full flavour and taste (in words) (group of experts [2]; [12]): positive influence

B1: miraculin (protein, UniProt P13087 30-220, looked up)
Miraculin: DSAPNPVLDIDGEKLRTGTNYYIVPVLRDHGGGLTVSATTPNGTFVCPPRVVQTRKEVDHDRPLAFFPENPKEDVVRVSTDLNINFSAFMPCRWTSSTVWRLDKYDESTGQYFVTIGGVKGNPGPETISSWFKIEEFCGSGFYKLVFCPTVCGSCKVKCGDVGIYIDQKGRRRLALSDKPFAFEFNKTVYF
notes: protein that in the presence of acids transforms the sour impression into a sweet taste impression
- Duration of the effect (sour impression transformed into sweet taste impression) [8]: 2 to 4 h
